According to patent US9505780B2, “Thienopyranones as kinase and epigenetic inhibitors” (SignalRx Pharmaceuticals, Inc., priority 2014, dated 2016):

Assays:
breast cancer stem cells = conditions: decreased from 11%; tumors with high HER2; cited from earlier work
BRD4-1 = BRD4-1 (Homo sapiens (Human), UniProt O60885); assay: BRD4 region 1 (BRD4-1) inhibition; assay type: biochemical
BRD4-2 = BRD4-2 (Homo sapiens (Human), UniProt O60885); assay: BRD4 region 2 (BRD4-2) inhibition; assay type: biochemical
PI3Kγ = PI3Kγ (Homo sapiens (Human), UniProt P48736); assay: PI3K gamma isoform inhibition; assay type: biochemical
Sequence of PI3Kγ (P48736 whole entry, canonical isoform): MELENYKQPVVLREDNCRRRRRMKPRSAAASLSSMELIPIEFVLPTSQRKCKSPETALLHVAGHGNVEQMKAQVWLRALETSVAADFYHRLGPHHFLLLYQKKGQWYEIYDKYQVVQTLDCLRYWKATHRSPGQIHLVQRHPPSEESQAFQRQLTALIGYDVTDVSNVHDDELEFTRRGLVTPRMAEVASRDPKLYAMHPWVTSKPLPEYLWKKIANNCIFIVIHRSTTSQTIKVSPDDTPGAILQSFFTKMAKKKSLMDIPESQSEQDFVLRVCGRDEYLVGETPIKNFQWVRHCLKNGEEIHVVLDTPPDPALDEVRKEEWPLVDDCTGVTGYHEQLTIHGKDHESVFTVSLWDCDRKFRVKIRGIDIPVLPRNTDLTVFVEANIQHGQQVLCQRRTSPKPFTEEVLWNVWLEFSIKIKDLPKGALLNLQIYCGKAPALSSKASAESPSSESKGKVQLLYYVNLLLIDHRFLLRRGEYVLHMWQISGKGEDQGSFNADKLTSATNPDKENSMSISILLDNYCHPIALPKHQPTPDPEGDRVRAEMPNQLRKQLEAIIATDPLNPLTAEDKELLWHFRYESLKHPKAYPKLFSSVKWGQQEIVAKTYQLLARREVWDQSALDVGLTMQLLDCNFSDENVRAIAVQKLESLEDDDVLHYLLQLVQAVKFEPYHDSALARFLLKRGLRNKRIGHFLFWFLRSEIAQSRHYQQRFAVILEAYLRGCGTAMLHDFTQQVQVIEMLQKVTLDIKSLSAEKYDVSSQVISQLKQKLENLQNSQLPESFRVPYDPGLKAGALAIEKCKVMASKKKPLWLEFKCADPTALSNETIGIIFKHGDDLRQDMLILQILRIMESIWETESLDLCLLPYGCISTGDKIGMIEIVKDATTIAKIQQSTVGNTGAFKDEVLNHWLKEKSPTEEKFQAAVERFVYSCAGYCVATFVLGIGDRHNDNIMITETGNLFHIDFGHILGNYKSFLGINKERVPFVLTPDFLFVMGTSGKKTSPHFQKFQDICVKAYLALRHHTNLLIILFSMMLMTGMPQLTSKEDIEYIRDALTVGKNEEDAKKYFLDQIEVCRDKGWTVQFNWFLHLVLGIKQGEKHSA

PI3Kδ = PI3Kδ (Homo sapiens (Human), UniProt O00329); assay: PI3K delta isoform inhibition; assay type: biochemical
Sequence of PI3Kδ (O00329 whole entry, canonical isoform): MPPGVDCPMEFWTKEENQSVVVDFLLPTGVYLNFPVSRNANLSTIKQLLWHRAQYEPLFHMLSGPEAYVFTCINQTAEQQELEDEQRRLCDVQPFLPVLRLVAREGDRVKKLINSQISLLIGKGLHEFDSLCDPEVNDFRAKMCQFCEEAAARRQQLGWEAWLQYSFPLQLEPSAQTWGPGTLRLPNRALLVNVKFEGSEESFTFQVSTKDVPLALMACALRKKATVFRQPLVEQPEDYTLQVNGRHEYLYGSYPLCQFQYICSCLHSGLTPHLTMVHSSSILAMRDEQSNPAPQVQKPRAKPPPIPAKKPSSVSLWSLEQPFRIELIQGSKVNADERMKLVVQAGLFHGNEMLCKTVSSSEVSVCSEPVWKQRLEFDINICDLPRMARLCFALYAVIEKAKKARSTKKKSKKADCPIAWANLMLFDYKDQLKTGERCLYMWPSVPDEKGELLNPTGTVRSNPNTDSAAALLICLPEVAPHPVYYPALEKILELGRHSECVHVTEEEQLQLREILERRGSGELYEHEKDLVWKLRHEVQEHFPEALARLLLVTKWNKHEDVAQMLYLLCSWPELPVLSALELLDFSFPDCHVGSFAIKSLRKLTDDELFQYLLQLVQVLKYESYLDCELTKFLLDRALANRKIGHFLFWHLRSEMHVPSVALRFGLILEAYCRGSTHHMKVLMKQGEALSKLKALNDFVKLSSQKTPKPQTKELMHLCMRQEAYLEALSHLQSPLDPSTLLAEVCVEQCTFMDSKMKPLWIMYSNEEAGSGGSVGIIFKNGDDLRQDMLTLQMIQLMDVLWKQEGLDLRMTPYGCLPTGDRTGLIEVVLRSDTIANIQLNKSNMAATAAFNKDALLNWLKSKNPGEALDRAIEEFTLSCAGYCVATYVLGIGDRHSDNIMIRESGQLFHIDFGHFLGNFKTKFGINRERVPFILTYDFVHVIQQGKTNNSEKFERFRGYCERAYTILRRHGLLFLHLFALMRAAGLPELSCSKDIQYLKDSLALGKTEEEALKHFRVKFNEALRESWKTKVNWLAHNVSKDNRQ
Sequence of PI3Kδ (P27986 whole entry partner, canonical isoform): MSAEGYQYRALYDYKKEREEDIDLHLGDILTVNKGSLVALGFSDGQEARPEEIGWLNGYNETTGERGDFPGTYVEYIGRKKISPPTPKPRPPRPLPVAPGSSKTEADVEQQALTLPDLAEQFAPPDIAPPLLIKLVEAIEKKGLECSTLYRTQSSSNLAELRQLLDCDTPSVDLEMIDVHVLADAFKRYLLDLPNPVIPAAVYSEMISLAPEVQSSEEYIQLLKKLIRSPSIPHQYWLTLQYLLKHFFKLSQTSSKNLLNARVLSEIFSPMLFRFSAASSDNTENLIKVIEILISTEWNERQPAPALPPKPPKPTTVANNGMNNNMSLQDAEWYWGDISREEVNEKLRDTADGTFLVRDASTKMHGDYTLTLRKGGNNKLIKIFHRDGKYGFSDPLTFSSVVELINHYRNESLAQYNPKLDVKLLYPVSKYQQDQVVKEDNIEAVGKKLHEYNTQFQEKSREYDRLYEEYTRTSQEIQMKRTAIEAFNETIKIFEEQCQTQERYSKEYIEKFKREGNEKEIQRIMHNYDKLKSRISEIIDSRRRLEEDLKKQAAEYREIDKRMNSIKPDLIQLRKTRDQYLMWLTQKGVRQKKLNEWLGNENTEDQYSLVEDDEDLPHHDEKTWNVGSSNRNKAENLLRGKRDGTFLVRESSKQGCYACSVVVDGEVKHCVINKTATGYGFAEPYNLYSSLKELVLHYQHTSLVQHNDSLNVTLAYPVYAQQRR
Description: Inhibitory activity can be determined routinely using known methods and also front commercial vendors offering this service for kinases and bromodomain proteins. […] In vivo, PI3K inhibition can be determined from target tissue biopsies by standard tissue processing to disrupt cells and then performing Western Blot analysis to determine the presence or absence of pAKT (substrate of PI3K) relative to a control sample. The activity of a compound of the invention as an inhibitor of a bromodomain-containing protein, such as a BET protein, such as BRD2, BRD3, BRD4, and/or BRDT, or an isoform or mutant thereof may be determined in vitro, in vivo, or in a cell line. In vitro assays include assays that determine inhibition of bromodomain-containing proteins. Alternatively, inhibitor binding may be determined by running a competition experiment where a provided compound is incubated with a bromodomain-containing protein, such as a BET protein bound to known ligands, labeled or unlabeled. For example, bromodomain inhibition can be determined in vitro using Alpha Screen Technology (http://www.reactionbiology.com/webapps/site/NewsPDFs/Bromodomain%20Assay%20Platform%20for%20Drug%/20Screening%20and%20Discovery.pdf). In vivo bromodomain inhibition can be determined indirectly by evaluating the amount of protect present of proteins whose genes' transcription is influenced or controlled by the bromodomain protein, for example, the MYCN protein transcription is controlled by BRD4 (J. E. Delmore et al., Cell 2011, 146, 904-917; A. Puissant, Cancer Discov. 2013, 3, 308-323). Bromodomain inhibition may also be predicted by in silico modeling as described below in the Examples.
Several TP Scaffold compounds (structures shown in FIG. 2 and Table 3) were tested for inhibition activity against isoforms of PI3K (alpha, beta, gamma, and delta isoforms) and the bromodomain protein BRD4 at regions 1 (BRD4-1) and 2 (BRD4-2).

PI3Kα = PI3Kα (Homo sapiens (Human), UniProt P42336); assay: PI3K alpha isoform inhibition; assay type: biochemical
Sequence of PI3Kα (P42336 whole entry, canonical isoform): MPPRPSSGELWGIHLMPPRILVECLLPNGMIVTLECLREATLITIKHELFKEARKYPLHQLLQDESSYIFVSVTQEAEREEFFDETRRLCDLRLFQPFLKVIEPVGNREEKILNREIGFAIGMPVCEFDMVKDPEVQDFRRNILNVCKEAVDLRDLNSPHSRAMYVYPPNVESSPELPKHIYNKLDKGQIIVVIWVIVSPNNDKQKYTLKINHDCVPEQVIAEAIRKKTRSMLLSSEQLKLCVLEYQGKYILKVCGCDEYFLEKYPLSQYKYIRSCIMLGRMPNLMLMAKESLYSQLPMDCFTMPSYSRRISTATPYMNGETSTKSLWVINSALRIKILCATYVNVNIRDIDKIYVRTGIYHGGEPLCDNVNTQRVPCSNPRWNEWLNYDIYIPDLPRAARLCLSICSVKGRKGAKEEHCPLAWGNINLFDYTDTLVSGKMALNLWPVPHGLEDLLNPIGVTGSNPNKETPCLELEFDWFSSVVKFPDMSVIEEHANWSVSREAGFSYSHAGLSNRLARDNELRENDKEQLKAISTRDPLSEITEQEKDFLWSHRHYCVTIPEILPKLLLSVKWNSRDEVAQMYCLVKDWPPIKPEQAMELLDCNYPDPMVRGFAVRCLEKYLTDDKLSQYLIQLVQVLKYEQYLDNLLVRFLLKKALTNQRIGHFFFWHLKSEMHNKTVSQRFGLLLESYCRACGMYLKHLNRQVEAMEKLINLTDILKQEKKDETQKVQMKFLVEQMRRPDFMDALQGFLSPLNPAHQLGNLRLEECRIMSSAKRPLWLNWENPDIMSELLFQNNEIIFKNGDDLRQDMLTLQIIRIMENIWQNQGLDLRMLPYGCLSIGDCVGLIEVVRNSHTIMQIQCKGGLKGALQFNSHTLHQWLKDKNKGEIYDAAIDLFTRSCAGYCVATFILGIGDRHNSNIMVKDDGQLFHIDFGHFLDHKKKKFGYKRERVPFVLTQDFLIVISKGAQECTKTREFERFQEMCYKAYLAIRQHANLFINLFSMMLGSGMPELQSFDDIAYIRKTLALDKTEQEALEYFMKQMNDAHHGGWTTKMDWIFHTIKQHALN
Sequence of PI3Kα (P27986 whole entry partner, canonical isoform): as the sequence (P27986 whole entry partner, canonical isoform) above

SKNBE (2) cells = assay: Western blot of p-AKT and N-MYC in SKNBE(2) cells; assay type: cell-based, human; conditions: 24 hrs treatment, IGF stimulated
Method: Cells were stimulated with 50 ng/ml IGF for 30 min and used for lysate preparation. Proteins were quantitated by the BCA protein assay (Pierce). Equal amounts of protein were resolved by polyacrylamide gels, transferred to nitrocellulose membrane and probed by Western blot with the following primary antibodies: p-AKT(Ser473), API (Cell Signaling Technologies), N-MYC, CyclinD1 and β-actin (Santa Cruz Biotechnology).

[1] = tested on: MYCN amplified SKNBE(2) cells; assay: Brd4 chromatin precipitation, quantitative PCR of MYCN promoter region; assay type: cell-based, human; conditions: 24 hours exposure
Method: MYCN amplified SKNBE(2) cells were exposed to inhibitors for 24 hours then chromatin was precipitated with Brd4 (rabbit polyclonal antibody) along with rabbit IgG as a negative control (IgG). Precipitated chromatin was analyzed for the MYCN gene (2 sites within the MYCN promoter region) by quantitative PCR and enrichment is shown as the percentage of total input DNA (FIG. 4). The negative control region primers amplify within a gene desert region approximately 1 Mb away from MYCN (MYC-N NR). Error bars represent ±SEM of triplicate data. P<0.05 as compared to positive control (paired t-test). Positive control: No inhibitor; IP with BRD4 antibody, Negative Control: No inhibitor, IP with rabbit IgG.

PI3Kβ = PI3Kβ (Homo sapiens (Human), UniProt P42338); assay: PI3K beta isoform inhibition; assay type: biochemical
Sequence of PI3Kβ (P42338 whole entry, canonical isoform): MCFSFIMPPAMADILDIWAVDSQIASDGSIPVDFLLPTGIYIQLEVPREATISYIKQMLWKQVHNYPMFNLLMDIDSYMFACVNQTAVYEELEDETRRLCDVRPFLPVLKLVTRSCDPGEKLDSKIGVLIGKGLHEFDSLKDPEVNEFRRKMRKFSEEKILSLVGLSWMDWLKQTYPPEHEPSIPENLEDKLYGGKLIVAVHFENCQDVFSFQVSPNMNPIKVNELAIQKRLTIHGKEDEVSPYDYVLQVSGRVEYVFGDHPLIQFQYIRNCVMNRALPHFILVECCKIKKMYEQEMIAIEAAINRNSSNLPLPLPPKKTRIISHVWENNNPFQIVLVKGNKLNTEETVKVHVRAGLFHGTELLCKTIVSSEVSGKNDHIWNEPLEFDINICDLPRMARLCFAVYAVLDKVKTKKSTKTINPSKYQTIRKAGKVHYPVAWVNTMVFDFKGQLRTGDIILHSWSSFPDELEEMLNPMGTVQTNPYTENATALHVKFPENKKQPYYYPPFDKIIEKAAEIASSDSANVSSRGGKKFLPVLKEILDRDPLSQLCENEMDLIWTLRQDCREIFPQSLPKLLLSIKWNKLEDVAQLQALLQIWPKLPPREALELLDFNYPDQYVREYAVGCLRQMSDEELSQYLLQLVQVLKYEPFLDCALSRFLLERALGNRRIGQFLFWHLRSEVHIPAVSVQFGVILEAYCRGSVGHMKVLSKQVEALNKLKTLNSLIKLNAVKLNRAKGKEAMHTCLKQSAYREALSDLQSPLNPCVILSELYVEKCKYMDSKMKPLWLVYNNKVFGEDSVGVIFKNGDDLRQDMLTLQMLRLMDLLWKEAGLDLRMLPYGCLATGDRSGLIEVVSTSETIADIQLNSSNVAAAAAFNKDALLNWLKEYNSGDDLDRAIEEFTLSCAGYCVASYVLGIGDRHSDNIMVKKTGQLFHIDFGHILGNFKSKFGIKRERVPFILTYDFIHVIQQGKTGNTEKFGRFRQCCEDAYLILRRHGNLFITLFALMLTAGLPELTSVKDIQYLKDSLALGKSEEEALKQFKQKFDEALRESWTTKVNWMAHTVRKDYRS
Sequence of PI3Kβ (P27986 whole entry partner, canonical isoform): as the sequence (P27986 whole entry partner, canonical isoform) above

HDAC = HDAC inhibitory activity, commercially available kit; assay type: biochemical; conditions: for HDAC inhibitory activity: 1, 10, 50 μM
BRD4 = BRD4 (Homo sapiens, UniProt O60885); assay: BRD4 inhibition assay (region not distinguished); assay type: biochemical; conditions: for BRD4 inhibition: BRD4 regions 1 and 2
PI-3 kinases = conditions: cited from earlier work

| SMILES | IC50 (BRD4-1) [nM] | IC50 (BRD4-2) [nM] | IC50 (PI3Kγ) [nM] | IC50 (PI3Kδ) [nM] | IC50 (PI3Kα) [nM] | further results |
| --- | --- | --- | --- | --- | --- | --- |
| CS(=O)(=O)CCNCc1ccc(-c2ccc3ncnc(Nc4ccc(OCc5cccc(F)c5)c(Cl)c4)c3c2)o1 [Lapatinib] | – | – | – | – | – | breast cancer stem cells, % of cells after treatment (breast cancer stem cells): 5% |
| O=c1cc(N2CCNCC2)oc2c(-c3ccccc3)cccc12 [LY303511] | – | – | – | – | – | MYCN protein quantity, Western blot (SKNBE (2) cells): inhibited only MYCN quantities; MYCN expression (Brd4 ChIP, MYCN promoter) [1]: significantly repressed MYCN expression |
| O=c1cc(N2CCOCC2)oc2c(C#Cc3ccccc3)csc12 [Cmpd 128] | 4000 | 10700 | – | – | – | – |
| O=C(Nc1cccc(-c2csc3c(=O)cc(N4CCOCC4)oc23)c1)Nc1cccc(C(F)(F)F)c1 [Cmpd 136] | 6150 | 1260 | – | – | – | – |
| Cn1c(=O)n(-c2ccc(C(C)(C)C#N)cc2)c2c3cc(-c4cnc5ccccc5c4)ccc3ncc21 [BEZ235] | – | – | – | – | – | pAKT, Western blot (SKNBE (2) cells): decreased pAKT |
| O=C(Nc1cccc(-c2csc3c(=O)cc(N4CCOCC4)oc23)c1)Nc1ccc(Cl)c(C(F)(F)F)c1 [Cmpd 123, 1-(4-Chloro-3-trifluoromethyl-phenyl)-3-[3-(5-morpholin-4-yl-7-oxo-7H-thieno[3,2-b]pyran-3-yl)-phenyl]-urea] | > 50000 | > 50000 | > 16700 | 9750 | 7670 | – |
| CC(C)(C)c1cc(NC(=O)Nc2cccc(-c3csc4c(=O)cc(N5CCOCC5)oc34)c2)no1 [Cmpd 122, 1-(5-tert-Butyl-isoxazol-3-yl)-3-[3-(5-morpholin-4-yl-7-oxo-7H-thieno[3,2-b]pyran-3-yl)-phenyl]-urea] | 2570 | 4880 | 8650 | 1350 | 950 | – |
| O=c1cc(N2CCOCC2)oc2ccsc12 [Cmpd 10] | > 50000 | > 50000 | > 50000 | > 50000 | 7160 | IC50 (PI3Kβ): 9250 nM |
| O=c1cc(N2CCSCC2)oc2c(Br)csc12 [Cmpd 127, 3-Bromo-5-thiomorpholino-7H-thieno[3,2-b]pyran-7-one] | 32600 | 34200 | 9770 | 3300 | 1720 | – |
| O=c1cc(N2CCOCC2)oc2c(-c3ccccc3)cccc12 [LY294002, 2-(4-morpholinyl)-8-phenyl-4H-1-benzopyran-4-one] | 5330 | 13100 | – | 3220 | – | IC50 (PI-3 kinases): 1400 nM; MYCN protein quantity, Western blot (SKNBE (2) cells): decreased; pAKT, Western blot (SKNBE (2) cells): decreased; MYCN expression (Brd4 ChIP, MYCN promoter) [1]: significantly repressed MYCN expression |
| O=c1cc(N2CCOCC2)oc2c(Br)csc12 [Cmpd 126, 3-Bromo-5-morpholin-4-yl-thieno[3,2-b]pyran-7-one] | > 50000 | > 50000 | 2200 | 1480 | – | – |
| CC[C@H](Nc1ncnc2[nH]cnc12)c1nc2cccc(F)c2c(=O)n1-c1ccccc1 [CAL101] | – | – | – | – | – | pAKT, Western blot (SKNBE (2) cells): decreased pAKT; IC50 (BRD4): > 50000 nM; BRD4 inhibition (BRD4): no BRD4 inhibition |
| Nc1cc(C(F)(F)F)c(-c2cc(N3CCOCC3)nc(N3CCOCC3)n2)cn1 [BKM120] | – | – | – | – | – | pAKT, Western blot (SKNBE (2) cells): decreased pAKT; BRD4 inhibition (BRD4): no BRD4 inhibition |

Second part, led by results:

| IC50 (BRD4-1) [nM] | IC50 (BRD4-2) [nM] | IC50 (PI3Kγ) [nM] | IC50 (PI3Kδ) [nM] | IC50 (PI3Kα) [nM] | SMILES | further results |
| --- | --- | --- | --- | --- | --- | --- |
| 558 | 1120 | – | – | – | CNC(=O)Nc1cccc(-c2csc3c(=O)cc(N4CCOCC4)oc23)c1 [Cmpd 133, 3-[m-(3-Methylureido)phenyl]-5-morpholino-4-oxa-1-thia-7-indenone] | – |
| 519 | 2800 | 4630 | 480 | 1580 | O=c1cc(N2CCSCC2)oc2c(-c3ccc4c(c3)OCCO4)csc12 [Cmpd 124, 3-(2,3-Dihydrobenzo[b][1,4]dioxan-6-yl)-5-thiomorpholino-7H-thieno[3,2-b]pyran-7-one] | – |
| 2230 | 9410 | – | – | – | O=c1cc(N2CCOCC2)oc2c(-c3ccn[nH]3)csc12 [Cmpd 129, 5-Morpholino-3-(2H-pyrazol-3-yl)-4-oxa-1-thia-7-Indenone] | – |
| 255 | 2310 | – | – | < 10000 | O=C(Nc1ccc(-c2csc3c(=O)cc(N4CCOCC4)oc23)cc1)c1ccc(F)c(F)c1Nc1ccc(I)cc1F [Cmpd 121] | – |
| 662 | 1850 | – | – | – | CN(C)C(=O)Nc1cccc(-c2csc3c(=O)cc(N4CCOCC4)oc23)c1 [Cmpd 134, 3-[m-(3-Dimethylureido)phenyl]-5-morpholino-4-oxa-1-thia-7-indenone] | – |
| 646 | 1270 | – | – | – | Cc1cccc(NC(=O)Nc2cccc(-c3csc4c(=O)cc(N5CCOCC5)oc34)c2)c1 [Cmpd 135, 5-Morpholino-3-{m-[3-(m-tolyl)ureido]phenyl}-4-oxa-1-thia-7-indenone] | – |
| 277 | 628 | 1170 | 27 | – | CCOC(=O)c1ccc(-c2csc3c(=O)cc(N4CCOCC4)oc23)cc1 [Cmpd 25] | IC50 (PI3Kβ): 1750 nM |
| 193 | 235 | 806 | 53 | 90 | O=C(NO)c1ccc(-c2csc3c(=O)cc(N4CCOCC4)oc23)cc1 [Cmpd 118] | HDAC activity inhibited versus control (HDAC; 1 μM): 17%; HDAC activity inhibited versus control (HDAC; 10 μM): 25%; HDAC activity inhibited versus control (HDAC; 50 μM): 41%; HDAC inhibitory activity (HDAC): significant HDAC inhibitory activity |
| 811 | 1470 | 547 | 12 | – | COC(=O)c1ccc(-c2csc3c(=O)cc(N4CCOCC4)oc23)cc1 [Cmpd 44, methyl 4-(5-morpholino-7-oxo-7H-thieno[3,2-b]pyran-3-yl)benzoate] | IC50 (PI3Kβ): 3600 nM; HDAC inhibitory activity (HDAC): No inhibitor activity; BRD4 inhibition (BRD4): showed activity |
| 843 | 1740 | 6300 | 9810 | – | Nc1cccc(-c2csc3c(=O)cc(N4CCOCC4)oc23)c1 [Cmpd 11, 3-(3-Amino-phenyl)-5-morpholin-4-yl-thieno[3,2-b]pyran-7-one] | – |
| 2170 | 3450 | 1570 | 784 | – | O=c1cc(N2CCOCC2)oc2c(-c3ccccc3)csc12 [Cmpd 6] | IC50 (PI3Kβ): 378 nM |
| 231 | 446 | – | – | – | Cc1n[nH]c2cc(-c3csc4c(=O)cc(N5CCOCC5)oc34)ccc12 [Cmpd 131, 3-(3-Methyl-1H-indazol-6-yl)-5-morpholino-4-oxa-1-thia-7-Indenone] | – |
| 349 | 695 | – | – | – | Cn1ncc2ccc(-c3csc4c(=O)cc(N5CCOCC5)oc34)cc21 [Cmpd 130, 3-(1-Methyl-1H-indazol-6-yl)-5-morpholino-4-oxa-1-thia-7-Indenone] | – |
| 326 | 393 | 556 | 21 | 95 | O=C(Nc1ccc(-c2csc3c(=O)cc(N4CCOCC4)oc23)cc1)c1ccncc1 [Cmpd 120] | – |
| 748 | 1260 | – | – | – | Cc1ccc(C)c(NC(=O)Nc2cccc(-c3csc4c(=O)cc(N5CCOCC5)oc34)c2)c1 [Cmpd 137, 5-Morpholino-3-{m-[3-(2,5-xylyl)ureido]phenyl}-4-oxa-1-thia-7-indenone] | – |
| 1090 | 2760 | 259 | 295 | 55.2 | O=C(O)c1ccc(-c2csc3c(=O)cc(N4CCOCC4)oc23)cc1 [Cmpd 100] | – |
